According to patent US20230406912A1, “HUMANISED ANTIBODIES AGAINST PATHOGENIC FUNGI” (priority 2020, published 2023):

What was measured:
C. auris [1] = experiment: EUCAST antifungal MIC assay, drug alone and combined with hmAb 2G8; assay type: cell-based; settings: drug alone
Procedure: To evaluate the susceptibility of C. auris to caspofungin, amphotericin B and their combination with hmAb 2G8, we followed the EUCAST antifungal MIC method (EUCAST E.DEF. 7.3). Antifungal drugs were purchased from Sigma-Aldrich.
The caspofungin and amphotericin B range concentrations analysed were reported in EUCAST document. Those concentrations were tested alone and in combination with 0.25, 2.5, 25 and 250 μg/ml of humanised antibody.
The plates microdilution and the yeast inoculum were prepared as reported in EUCAST document. The wells with 100 μl of 2X final antifungal drugs concentration in RPMI 2% G medium were inoculated with 100 μl (1-5×10^5 CFU/ml) of yeast suspension of C. auris. The monoclonal antibody was added to the samples of yeast suspension to test the combination drug-antibody. The plates were incubated at 37° C. for 24 and 48 hours and read after incubation at 405 nm. The assays were performed in triplicate.
As reported in EUCAST, echinocandins' MIC50 is the lowest drug concentration giving inhibition of≥50% of that of the drug-free control (dotted line). For amphotericin B, MIC50 is the same as for echinocandins while MIC90 is considered as the lowest concentration giving a growth inhibition of≥90% of that of the drug-free control (dotted bold line). […] At 48 hours (D), amphotericin B alone has its MIC50 and 90 at 1 μg/ml.

C. auris [2] = experiment: Time-kill curve, drug alone and combined with hmAb 2G8; assay type: cell-based
From the text: To support and deepen the data coming from MIC assays, a time-kill curve was elaborated to evaluate how the hmAb 2G8 combined with caspofungin or amphotericin B could improve their basal activity on C. auris.

C. auris [3] = settings: different C. auris strains, literature; cited from earlier work

C[C@@H]1[C@H](O)[C@@H](C)/C=C/C=C/C=C/C=C/C=C/C=C/C=C/[C@H](O[C@@H]2O[C@H](C)[C@@H](O)[C@H](N)[C@@H]2O)C[C@@H]2O[C@](O)(C[C@@H](O)C[C@@H](O)[C@H](O)CC[C@@H](O)C[C@@H](O)CC(=O)O[C@H]1C)C[C@H](O)[C@H]2C(=O)O [amphotericin B]
MIC50 (C. auris [1]; 24 hours): 0.5 µg/mL | MIC90 (C. auris [1]; 24 hours): 0.5 µg/mL | MIC50 (C. auris [1]; 48 hours): 1 µg/mL | MIC90 (C. auris [1]; 48 hours): 1 µg/mL | log growth decrease (time-kill curve) (C. auris [2]; AMB 0.03125 μg/ml, 0 h): 0.01 Log | log growth decrease (time-kill curve) (C. auris [2]; AMB 0.03125 μg/ml, 2 h): 0.05 Log | log growth decrease (time-kill curve) (C. auris [2]; AMB 0.03125 μg/ml, 4 h): −0.19 Log | log growth decrease (time-kill curve) (C. auris [2]; AMB 0.03125 μg/ml, 6 h): −0.62 Log | log growth decrease (time-kill curve) (C. auris [2]; AMB 0.03125 μg/ml, 8 h): −1.04 Log | log growth decrease (time-kill curve) (C. auris [2]; AMB 0.03125 μg/ml, 24 h): −2.65 Log | log growth decrease (time-kill curve) (C. auris [2]; AMB 0.03125 μg/ml, 48 h): −2.85 Log | log growth decrease (time-kill curve) (C. auris [2]; AMB 0.0625 μg/ml, 0 h): 0.00 Log | log growth decrease (time-kill curve) (C. auris [2]; AMB 0.0625 μg/ml, 2 h): 0.07 Log | log growth decrease (time-kill curve) (C. auris [2]; AMB 0.0625 μg/ml, 4 h): −0.14 Log | log growth decrease (time-kill curve) (C. auris [2]; AMB 0.0625 μg/ml, 6 h): −0.59 Log | log growth decrease (time-kill curve) (C. auris [2]; AMB 0.0625 μg/ml, 8 h): −0.97 Log | log growth decrease (time-kill curve) (C. auris [2]; AMB 0.0625 μg/ml, 24 h): −2.59 Log | log growth decrease (time-kill curve) (C. auris [2]; AMB 0.0625 μg/ml, 48 h): −2.57 Log | log growth decrease (time-kill curve) (C. auris [2]; AMB 0.125 μg/ml, 0 h): 0.01 Log | log growth decrease (time-kill curve) (C. auris [2]; AMB 0.125 μg/ml, 2 h): 0.11 Log | log growth decrease (time-kill curve) (C. auris [2]; AMB 0.125 μg/ml, 4 h): −0.07 Log | log growth decrease (time-kill curve) (C. auris [2]; AMB 0.125 μg/ml, 6 h): −0.42 Log | log growth decrease (time-kill curve) (C. auris [2]; AMB 0.125 μg/ml, 8 h): −0.80 Log | log growth decrease (time-kill curve) (C. auris [2]; AMB 0.125 μg/ml, 24 h): −2.28 Log | log growth decrease (time-kill curve) (C. auris [2]; AMB 0.125 μg/ml, 48 h): −2.44 Log | log growth decrease (time-kill curve) (C. auris [2]; AMB 0.25 μg/ml, 0 h): 0.07 Log | log growth decrease (time-kill curve) (C. auris [2]; AMB 0.25 μg/ml, 2 h): 0.10 Log | log growth decrease (time-kill curve) (C. auris [2]; AMB 0.25 μg/ml, 4 h): 0.02 Log | log growth decrease (time-kill curve) (C. auris [2]; AMB 0.25 μg/ml, 6 h): −0.02 Log | log growth decrease (time-kill curve) (C. auris [2]; AMB 0.25 μg/ml, 8 h): 0.02 Log | log growth decrease (time-kill curve) (C. auris [2]; AMB 0.25 μg/ml, 24 h): 0.19 Log | log growth decrease (time-kill curve) (C. auris [2]; AMB 0.25 μg/ml, 48 h): −2.13 Log | log growth decrease (time-kill curve) (C. auris [2]; AMB 0.5 μg/ml, 0 h): 0.05 Log | log growth decrease (time-kill curve) (C. auris [2]; AMB 0.5 μg/ml, 2 h): 0.21 Log | log growth decrease (time-kill curve) (C. auris [2]; AMB 0.5 μg/ml, 4 h): 0.41 Log | log growth decrease (time-kill curve) (C. auris [2]; AMB 0.5 μg/ml, 6 h): 0.86 Log | log growth decrease (time-kill curve) (C. auris [2]; AMB 0.5 μg/ml, 8 h): 1.95 Log | log growth decrease (time-kill curve) (C. auris [2]; AMB 0.5 μg/ml, 24 h): ≥3 Log | log growth decrease (time-kill curve) (C. auris [2]; AMB 0.5 μg/ml, 48 h): ≥3 Log | log growth decrease (time-kill curve) (C. auris [2]; AMB 1 μg/ml, 0 h): 0.05 Log | log growth decrease (time-kill curve) (C. auris [2]; AMB 1 μg/ml, 2 h): 1.77 Log | log growth decrease (time-kill curve) (C. auris [2]; AMB 1 μg/ml, 4 h): ≥3 Log | log growth decrease (time-kill curve) (C. auris [2]; AMB 1 μg/ml, 6 h): ≥3 Log | log growth decrease (time-kill curve) (C. auris [2]; AMB 1 μg/ml, 8 h): ≥3 Log | log growth decrease (time-kill curve) (C. auris [2]; AMB 1 μg/ml, 24 h): ≥3 Log | log growth decrease (time-kill curve) (C. auris [2]; AMB 1 μg/ml, 48 h): ≥3 Log | log growth decrease (time-kill curve) (C. auris [2]; AMB 2 μg/ml, 0 h): 0.05 Log | log growth decrease (time-kill curve) (C. auris [2]; AMB 2 μg/ml, 2 h): ≥3 Log | log growth decrease (time-kill curve) (C. auris [2]; AMB 2 μg/ml, 4 h): ≥3 Log | log growth decrease (time-kill curve) (C. auris [2]; AMB 2 μg/ml, 6 h): ≥3 Log | log growth decrease (time-kill curve) (C. auris [2]; AMB 2 μg/ml, 8 h): ≥3 Log | log growth decrease (time-kill curve) (C. auris [2]; AMB 2 μg/ml, 24 h): ≥3 Log | log growth decrease (time-kill curve) (C. auris [2]; AMB 2 μg/ml, 48 h): ≥3 Log | log growth decrease (time-kill curve) (C. auris [2]; AMB 4 μg/ml, 0 h): 0.06 Log | log growth decrease (time-kill curve) (C. auris [2]; AMB 4 μg/ml, 2 h): ≥3 Log | log growth decrease (time-kill curve) (C. auris [2]; AMB 4 μg/ml, 4 h): ≥3 Log | log growth decrease (time-kill curve) (C. auris [2]; AMB 4 μg/ml, 6 h): ≥3 Log | log growth decrease (time-kill curve) (C. auris [2]; AMB 4 μg/ml, 8 h): ≥3 Log | log growth decrease (time-kill curve) (C. auris [2]; AMB 4 μg/ml, 24 h): ≥3 Log | log growth decrease (time-kill curve) (C. auris [2]; AMB 4 μg/ml, 48 h): ≥3 Log | time at which fungicidal activity is obtained (C. auris [2]; time-kill curve, as efficiency starts decreasing): 24 h | MIC (C. auris [3]): ≥ 2 µg/mL
